Measured values published in ChEMBL document CHEMBL4715826, “Selective PPARδ Modulators Improve Mitochondrial Function: Potential Treatment for Duchenne Muscular Dystrophy (DMD)” (ACS Med Chem Lett, 2018).

Experiments:
[1] = target: T1, Peroxisome proliferator-activated receptor gamma (Homo sapiens, UniProt P37231); experiment: Modulator activity at GAL4-fused human PPARgamma LBD (unknown origin) transfected in African green monkey CV1 cells assessed as receptor transactivation by luciferase reporter gene assay; format: cell-based, CV-1
T1 sequence (P37231 whole entry): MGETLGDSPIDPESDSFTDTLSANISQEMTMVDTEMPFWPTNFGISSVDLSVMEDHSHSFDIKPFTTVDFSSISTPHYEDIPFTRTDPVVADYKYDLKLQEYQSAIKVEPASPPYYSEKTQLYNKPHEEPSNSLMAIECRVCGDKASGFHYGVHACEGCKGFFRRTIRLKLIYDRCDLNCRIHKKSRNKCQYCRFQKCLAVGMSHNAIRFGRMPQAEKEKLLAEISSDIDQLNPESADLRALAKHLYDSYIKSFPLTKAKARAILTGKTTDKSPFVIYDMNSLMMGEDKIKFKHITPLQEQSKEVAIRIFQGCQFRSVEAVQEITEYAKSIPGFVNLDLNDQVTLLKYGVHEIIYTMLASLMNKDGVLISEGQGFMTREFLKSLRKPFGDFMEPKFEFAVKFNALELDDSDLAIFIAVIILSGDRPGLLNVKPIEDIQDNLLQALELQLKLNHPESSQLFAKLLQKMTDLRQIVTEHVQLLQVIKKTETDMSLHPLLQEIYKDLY

[2] = Volume of distribution at steady state in CD-1 mouse at 1 mg/kg, iv; format: ADME, organism-based; conditions: in vivo, read-out: Vdss
[3] = Half life in cynomolgus monkey at 3 mg/kg, iv; format: ADME, organism-based, Macaca fascicularis; conditions: in vivo
[4] = AUC in cynomolgus monkey at 3 mg/kg, iv; format: ADME, organism-based, Macaca fascicularis; set-up: dose 3 mg/kg; conditions: in vivo
[5] = Oral bioavailability in CD-1 mouse at 3 mg/kg; format: ADME, organism-based; conditions: in vivo
[6] = Permeability across apical to basolateral side in human Caco2 cells; format: ADME, cell-based; conditions: Caco-2, read-out: permeability
[7] = Protein binding in rat plasma; format: ADME, cell-free; conditions: read-out: PPB (converted)
[8] = Protein binding in mouse plasma; format: ADME, cell-free; conditions: read-out: PPB (converted)
[9] = target: T2, Peroxisome proliferator-activated receptor delta (Mus musculus, UniProt P35396); experiment: Modulator activity at mouse PPARdelta
T2 sequence (P35396 whole entry): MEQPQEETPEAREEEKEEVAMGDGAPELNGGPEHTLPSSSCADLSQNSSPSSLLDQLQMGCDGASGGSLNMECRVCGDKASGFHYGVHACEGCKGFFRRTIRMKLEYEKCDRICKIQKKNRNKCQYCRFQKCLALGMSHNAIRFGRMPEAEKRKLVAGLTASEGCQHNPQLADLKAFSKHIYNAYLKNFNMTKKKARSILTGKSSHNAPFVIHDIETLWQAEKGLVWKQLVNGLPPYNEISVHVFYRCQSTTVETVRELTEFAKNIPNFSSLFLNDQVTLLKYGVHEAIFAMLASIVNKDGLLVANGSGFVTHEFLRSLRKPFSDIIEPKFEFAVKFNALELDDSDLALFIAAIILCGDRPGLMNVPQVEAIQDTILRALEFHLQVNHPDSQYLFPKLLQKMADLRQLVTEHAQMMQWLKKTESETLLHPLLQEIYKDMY

[10] = Half life in CD-1 mouse at 3 mg/kg, po; format: ADME, organism-based; conditions: in vivo
[11] = Modulator activity at rat PPARdelta
[12] = AUC in Wistar rat at 3 mg/kg, po; format: ADME, organism-based; set-up: dose 3 mg/kg; conditions: in vivo
[13] = target: T3, Peroxisome proliferator-activated receptor delta (Mus musculus) (UniProt P35396); experiment: Modulator activity at PPARdelta in […] primary myoblasts derived from DMD patient assessed as upregulation of PDK4 gene expression at 0.4 nM measured after 48 hrs; format: tissue-based; conditions: Primary myotube, filed as modulator
T3 sequence (whole entry): T2 sequence (P35396 whole entry)

[14] = Protein binding in human plasma; format: ADME, cell-free; conditions: read-out: PPB
[15] = AUC in CD-1 mouse at 3 mg/kg, po; format: ADME, organism-based; set-up: dose 3 mg/kg; conditions: in vivo
[16] = Volume of distribution at steady state in Wistar rat at 1 mg/kg, iv; format: ADME, organism-based; conditions: in vivo, read-out: Vdss
[17] = Cmax in cynomolgus monkey at 10 mg/kg, po; format: ADME, organism-based, Macaca fascicularis; set-up: route oral, dose 10 mg/kg; conditions: in vivo
[18] = Inhibition of CYP450 (unknown origin); format: ADME, Homo sapiens
[19] = Half life in CD-1 mouse at 1 mg/kg, iv; format: ADME, organism-based; conditions: in vivo
[20] = Permeability across basolateral to apical side in human Caco2 cells; format: ADME, cell-based; conditions: Caco-2, read-out: permeability
[21] = Clearance in CD-1 mouse at 3 mg/kg, iv; format: ADME, organism-based; conditions: in vivo
[22] = AUC in CD-1 mouse at 3 mg/kg, iv; format: ADME, organism-based; set-up: dose 3 mg/kg; conditions: in vivo
[23] = target: T3, Peroxisome proliferator-activated receptor delta (Mus musculus); experiment: Modulator activity at PPARdelta in […] primary myoblasts derived from DMD patient assessed as upregulation of PDK4 gene expression at 0.04 nM measured after 48 hrs; format: tissue-based; conditions: Primary myotube
[24] = target: T4, Peroxisome proliferator-activated receptor alpha (Homo sapiens, UniProt Q07869); experiment: Modulator activity at GAL4-fused human PPARalpha LBD (unknown origin) transfected in African green monkey CV1 cells assessed as receptor transactivation by luciferase reporter gene assay; format: cell-based, CV-1
T4 sequence (Q07869 whole entry): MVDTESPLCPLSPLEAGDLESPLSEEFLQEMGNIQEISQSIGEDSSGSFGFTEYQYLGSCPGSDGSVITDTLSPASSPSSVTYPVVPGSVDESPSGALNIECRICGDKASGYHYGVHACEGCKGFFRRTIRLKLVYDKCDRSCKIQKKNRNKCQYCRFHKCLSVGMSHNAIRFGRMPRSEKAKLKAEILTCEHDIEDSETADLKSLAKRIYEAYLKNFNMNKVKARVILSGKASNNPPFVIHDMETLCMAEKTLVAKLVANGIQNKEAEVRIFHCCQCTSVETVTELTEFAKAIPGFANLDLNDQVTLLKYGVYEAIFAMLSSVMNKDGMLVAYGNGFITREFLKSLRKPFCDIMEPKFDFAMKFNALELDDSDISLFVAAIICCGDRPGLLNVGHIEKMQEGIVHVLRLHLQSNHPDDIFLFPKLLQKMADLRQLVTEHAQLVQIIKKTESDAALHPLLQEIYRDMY

[25] = Clearance in Wistar rat at 1 mg/kg, iv; format: ADME, organism-based; conditions: in vivo
[26] = target: T5, Peroxisome proliferator-activated receptor delta (Homo sapiens, UniProt Q03181)
T5 sequence (Q03181 whole entry): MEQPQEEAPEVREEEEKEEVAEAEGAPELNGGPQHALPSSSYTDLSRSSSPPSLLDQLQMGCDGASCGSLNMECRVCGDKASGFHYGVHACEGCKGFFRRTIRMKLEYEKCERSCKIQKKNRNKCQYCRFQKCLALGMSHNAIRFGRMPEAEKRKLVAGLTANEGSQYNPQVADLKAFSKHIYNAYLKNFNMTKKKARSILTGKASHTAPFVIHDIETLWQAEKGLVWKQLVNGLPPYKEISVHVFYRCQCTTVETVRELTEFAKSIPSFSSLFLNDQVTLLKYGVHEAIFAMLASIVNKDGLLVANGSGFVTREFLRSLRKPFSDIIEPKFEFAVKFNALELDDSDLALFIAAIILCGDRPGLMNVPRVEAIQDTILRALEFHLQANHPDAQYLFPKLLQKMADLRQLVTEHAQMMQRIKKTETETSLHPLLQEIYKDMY
Description: Modulator activity at GAL4-fused human PPARdelta LBD (128 to residue at C-terminus) transfected in African green monkey CV1 cells assessed as receptor transactivation by luciferase reporter gene assay

[27] = Half life in CD-1 mouse at 3 mg/kg, iv; format: ADME, organism-based; conditions: in vivo

## Cc1cnc(-c2ccc(OC(F)(F)F)cc2)n1Cc1ccccc1OCCC[C@@H](C)CC(=O)O
[1]
  EC50: > 10000 nM
[2]
  Vd: 5.8 L/kg
[3]
  t1/2: 6.1 h
[4]
  AUC: 8400 ng·h/mL
[5]
  bioavailability: 42%
[6]
  Papp A→B: 36 ×10⁻⁶ cm/s
[7]
  fraction unbound: 0.004
[8]
  fraction unbound: 0.005
[9]
  EC50: 7.9 nM
[10]
  half-life: 3.4 h
[11]
  EC50: 10 nM
[12]
  AUC: 4920 ng·h/mL
[13]
  Activity: 98%
[14]
  fraction unbound: 0.001
[15]
  AUC: 630 ng·h/mL
[16]
  Vd: 1.8 L/kg
[17]
  Cmax: 1660 ng/mL
[18]
  IC50: ≥ 10000 nM
[19]
  half-life: 2.7 h
[20]
  Papp B→A: 41 ×10⁻⁶ cm/s
[21]
  clearance: 25 mL/min/kg
[22]
  AUC: 1250 ng·h/mL
[23]
  Activity: 32%
[24]
  EC50: 6900 nM
[25]
  clearance: 10 mL/min/kg
[26]
  EC50: 0.4 nM
[27]
  half-life: 3.3 h
